Marks after values point to notes of the source that are not given here.
Tested on: prostate gland
Experiment: Prostate weight in male rats after once daily intravenous infusion for four weeks
Assay type: in vivo, rat
Conditions: 15-min iv infusion once daily for four weeks, N=10
Experimental: Male rats were divided into a control group and three test groups with 20 animals per group. Animals were administered the MetAP-2 inhibitor Compound I, represented by the formula: Compound I was prepared in a 5% mannitol solution was administered once daily for four weeks by a fifteen-minute intravenous infusion according to Table I. [table] Ten animals from each group were euthanized at the end of the four weeks. The remaining ten animals were allowed to recover for 10 additional weeks and were then euthanized.

CO[C@@H]1[C@H](OC(=O)/C=C/c2ccc(OCCN(C)C)cc2)CCC2(CO2)[C@H]1[C@@]1(C)O[C@@H]1CC=C(C)C (stereo in doubt) [Compound I]
Prostate Weight (g) Mean (0.04 mg/kg/day): 0.90** g | Prostate Weight (g) Mean (0.2 mg/kg/day): 0.89** g | Prostate Weight (g) Mean (1.0 mg/kg/day): 0.76** g
